{
  "source": "PubChem BioAssay AID330",
  "about": "(DTP/NCI, 2004)",
  "system": "P388 leukemia ip, CD2F1 mice, survival T/C",
  "assay": "NCI In Vivo Anticancer Drug Screen. Data for tumor model P388 Leukemia (intraperitoneal) in CD2F1 (CDF1) mice",
  "conditions": "endpoint: median survival time, higher = longer survival",
  "method_in_brief": "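Mice carrying the transplanted tumor received test compound or vehicle. Survival was recorded in each group, and the value is the treated-group measurement divided by that of the vehicle-treated control group.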",
  "key": {"[1]": {"conditions": "dose: 50.0 mg/kg/injection, schedule: Q01DX009 (ip), vehicle: saline"}, "[2]": {"conditions": "dose: 100.0 mg/kg/injection, schedule: Q01DX009 (ip), vehicle: saline"}, "[3]": {"conditions": "dose: 50.0 mg/kg/injection, schedule: Q01DX005 (ip), vehicle: Klucel (hydroxypropylcellulose) (HPC)"}, "[4]": {"conditions": "dose: 100.0 mg/kg/injection, schedule: Q01DX005 (ip), vehicle: Klucel (hydroxypropylcellulose) (HPC)"}},
  "note": "Several values for one entry are separate records, joined by “and”; a condition that tells them apart may be missing. Equal entries are not always repeated. Inconclusive results and toxic doses are left out.",
  "data": [
    {"compound": "COc1ccc2c(c1)OC1COc3cc(OC)c(OC)cc3C1C2=O", "note": "(stereo not given)", "values": [
      {"measurement": "T/C", "setting": "dose: 12.5 mg/kg/injection, schedule: Q01DX009 (ip), vehicle: saline", "result": "101 % of control"},
      {"measurement": "T/C", "setting": "dose: 25.0 mg/kg/injection, schedule: Q01DX009 (ip), vehicle: saline", "result": "94 % of control"},
      {"measurement": "T/C", "setting": "[1]", "result": "92 % of control"},
      {"measurement": "T/C", "setting": "[2]", "result": "93 % of control"}
    ]},
    {"compound": "CN(c1ccccc1)c1cc(=O)nc2ccccn12", "values": [
      {"measurement": "T/C", "setting": "dose: 60.0 mg/kg/injection, schedule: Q01DX005 (ip), vehicle: saline", "result": "105 % of control"},
      {"measurement": "T/C", "setting": "dose: 120.0 mg/kg/injection, schedule: Q01DX005 (ip), vehicle: saline", "result": "98 % of control"},
      {"measurement": "T/C", "setting": "dose: 240.0 mg/kg/injection, schedule: Q01DX005 (ip), vehicle: saline", "result": "105 % of control"}
    ]},
    {"compound": "Brc1ccccc1C(Nc1nncs1)Nc1nncs1", "values": [
      {"measurement": "T/C", "setting": "dose: 60.0 mg/kg/injection, schedule: Q01DX005 (ip), vehicle: saline with Tween-80", "result": "117 % of control and 123 % of control"},
      {"measurement": "T/C", "setting": "dose: 240.0 mg/kg/injection, schedule: Q01DX005 (ip), vehicle: saline with Tween-80", "result": "154 % of control and 156 % of control"},
      {"measurement": "T/C", "setting": "dose: 480.0 mg/kg/injection, schedule: Q01DX005 (ip), vehicle: saline with Tween-80", "result": "169 % of control"}
    ]},
    {"compound": "Cn1c(=S)[nH]c2c(c1=O)CCCN2", "values": [
      {"measurement": "T/C", "setting": "dose: 100.0 mg/kg/injection, schedule: Q01DX001 (ip), vehicle: Klucel (hydroxypropylcellulose) (HPC)", "result": "101 % of control"},
      {"measurement": "T/C", "setting": "dose: 200.0 mg/kg/injection, schedule: Q01DX001 (ip), vehicle: Klucel (hydroxypropylcellulose) (HPC)", "result": "99 % of control"},
      {"measurement": "T/C", "setting": "dose: 400.0 mg/kg/injection, schedule: Q01DX001 (ip), vehicle: Klucel (hydroxypropylcellulose) (HPC)", "result": "95 % of control"}
    ]},
    {"compound": "Oc1cc(O)cc(/C=C/c2ccc(O)cc2O)c1", "values": [
      {"measurement": "T/C", "setting": "dose: 2.0 mg/kg/injection, schedule: Q01DX009 (ip), vehicle: Klucel (hydroxypropylcellulose) (HPC)", "result": "102 % of control"},
      {"measurement": "T/C", "setting": "dose: 4.0 mg/kg/injection, schedule: Q01DX009 (ip), vehicle: Klucel (hydroxypropylcellulose) (HPC)", "result": "105 % of control"},
      {"measurement": "T/C", "setting": "dose: 8.0 mg/kg/injection, schedule: Q01DX009 (ip), vehicle: Klucel (hydroxypropylcellulose) (HPC)", "result": "101 % of control"},
      {"measurement": "T/C", "setting": "dose: 16.0 mg/kg/injection, schedule: Q01DX009 (ip), vehicle: Klucel (hydroxypropylcellulose) (HPC)", "result": "94 % of control"},
      {"measurement": "T/C", "setting": "dose: 32.0 mg/kg/injection, schedule: Q01DX009 (ip), vehicle: Klucel (hydroxypropylcellulose) (HPC)", "result": "101 % of control"}
    ]},
    {"compound": "OCc1cccc2c1Oc1ccccc1S2", "values": [
      {"measurement": "T/C", "setting": "dose: 100.0 mg/kg/injection, schedule: Q01DX001 (ip), vehicle: saline with Tween-80", "result": "98 % of control"},
      {"measurement": "T/C", "setting": "dose: 200.0 mg/kg/injection, schedule: Q01DX001 (ip), vehicle: saline with Tween-80", "result": "98 % of control"},
      {"measurement": "T/C", "setting": "dose: 400.0 mg/kg/injection, schedule: Q01DX001 (ip), vehicle: saline with Tween-80", "result": "95 % of control"}
    ]},
    {"compound": "COc1ccc(CSc2nn(CCC#N)c(=O)[nH]c2=O)cc1", "values": [
      {"measurement": "T/C", "setting": "dose: 50.0 mg/kg/injection, schedule: Q01DX005 (ip), vehicle: saline with Tween-80", "result": "95 % of control"},
      {"measurement": "T/C", "setting": "dose: 100.0 mg/kg/injection, schedule: Q01DX005 (ip), vehicle: saline with Tween-80", "result": "97 % of control"},
      {"measurement": "T/C", "setting": "dose: 200.0 mg/kg/injection, schedule: Q01DX005 (ip), vehicle: saline with Tween-80", "result": "94 % of control"}
    ]},
    {"compound": "O=C(O)C1C2C(=O)N(CO)C(=O)C2C(C(=O)O)C2C3C(=O)N(CO)C(=O)C3C12", "note": "(stereo not given)", "values": [
      {"measurement": "T/C", "setting": "dose: 12.5 mg/kg/injection, schedule: Q01DX009 (ip), vehicle: water", "result": "108 % of control"},
      {"measurement": "T/C", "setting": "dose: 25.0 mg/kg/injection, schedule: Q01DX009 (ip), vehicle: water", "result": "99 % of control"},
      {"measurement": "T/C", "setting": "dose: 50.0 mg/kg/injection, schedule: Q01DX009 (ip), vehicle: water", "result": "102 % of control and 105 % of control and 92 % of control"},
      {"measurement": "T/C", "setting": "dose: 100.0 mg/kg/injection, schedule: Q01DX009 (ip), vehicle: water", "result": "107 % of control and 117 % of control and 120 % of control"},
      {"measurement": "T/C", "setting": "dose: 200.0 mg/kg/injection, schedule: Q01DX009 (ip), vehicle: water", "result": "114 % of control and 120 % of control"}
    ]},
    {"compound": "CC(C)(C)c1cc(C(=S)SCc2ccccc2)cc(C(C)(C)C)c1O", "values": [
      {"measurement": "T/C", "setting": "dose: 50.0 mg/kg/injection, schedule: Q01DX009 (ip), vehicle: saline with Tween-80", "result": "93 % of control"},
      {"measurement": "T/C", "setting": "dose: 100.0 mg/kg/injection, schedule: Q01DX009 (ip), vehicle: saline with Tween-80", "result": "105 % of control"},
      {"measurement": "T/C", "setting": "dose: 200.0 mg/kg/injection, schedule: Q01DX009 (ip), vehicle: saline with Tween-80", "result": "105 % of control"}
    ]},
    {"compound": "CC(/C=C/c1ccco1)=N\\O", "values": [
      {"measurement": "T/C", "setting": "dose: 12.5 mg/kg/injection, schedule: Q01DX009 (ip), vehicle: other", "result": "104 % of control"},
      {"measurement": "T/C", "setting": "dose: 25.0 mg/kg/injection, schedule: Q01DX009 (ip), vehicle: other", "result": "100 % of control"},
      {"measurement": "T/C", "setting": "dose: 50.0 mg/kg/injection, schedule: Q01DX009 (ip), vehicle: other", "result": "91 % of control"}
    ]},
    {"compound": "CN1C2CCC1CC(O)(c1ccc(Cl)cc1)C2", "note": "(stereo not given)", "values": [
      {"measurement": "T/C", "setting": "dose: 12.5 mg/kg/injection, schedule: Q01DX005 (ip), vehicle: Klucel (hydroxypropylcellulose) (HPC)", "result": "100 % of control"},
      {"measurement": "T/C", "setting": "dose: 25.0 mg/kg/injection, schedule: Q01DX005 (ip), vehicle: Klucel (hydroxypropylcellulose) (HPC)", "result": "100 % of control"},
      {"measurement": "T/C", "setting": "[3]", "result": "107 % of control"},
      {"measurement": "T/C", "setting": "[4]", "result": "109 % of control"}
    ]},
    {"compound": "NC(=O)N/N=C1/CCC(O)CC1CC(=O)O", "note": "(stereo not given)", "values": [
      {"measurement": "T/C", "setting": "[3]", "result": "103 % of control"},
      {"measurement": "T/C", "setting": "[4]", "result": "100 % of control"},
      {"measurement": "T/C", "setting": "dose: 200.0 mg/kg/injection, schedule: Q01DX005 (ip), vehicle: Klucel (hydroxypropylcellulose) (HPC)", "result": "97 % of control"}
    ]},
    {"compound": "CCON(C=Nc1ccc(Cl)c(Cl)c1)c1ccc(Cl)c(Cl)c1", "values": [
      {"measurement": "T/C", "setting": "[1]", "result": "103 % of control"},
      {"measurement": "T/C", "setting": "[2]", "result": "102 % of control"},
      {"measurement": "T/C", "setting": "dose: 200.0 mg/kg/injection, schedule: Q01DX009 (ip), vehicle: saline", "result": "91 % of control"}
    ]}
  ]
}
